# Results from patent publication US20150322033A1, “ANTIBACTERIAL AGENT” (priority 2012, published 2015).
# Where “and” joins values, the source holds several entries; their conditions need not be identical. Equal values may be shown once. Read-outs that look alike come from different tables or passages of the source.
# What was measured:
# [1] = molecular target: T1, GyrA(S84L) + GyrB(wt) (Staphylococcus aureus, UniProt P20831, S84L); test: DNA cleavage assay with mutant GyrA(S84L) and GyrB(wt); format: biochemical
# T1 construct: made in house; host or cells: E. coli BL21(DE3)
# Text: E. coliBL21(DE3) (produced by Invitrogen) was transformed with pMAL-c2-gyrA mentioned above, with pMAL-c2-gyrB mentioned above, or with pMAL-c2-SAGAmut84 containing a mutant gyrA encoding the amino acid sequence of GyrA(wt) in which serine residue at the 84th position from the amino terminus is substituted with a leucine residue (see, Hiramatsu K., Igarashi M., Morimoto Y, Baba T., Umekita M., Akamatsu Y., Int. J. Antimicrob. Agents, 2012 June; 39(6), 478-85). To the culture medium of the resulting transformed Escherichia coli, 1 mM […] (produced by Wako Pure Chemical Industries) was added to induce expression of maltose-binding GyrA(wt), maltose-binding GyrB(wt), or maltose-binding mutant GyrA(S84L), and the bacterium was cultured overnight at 25° C. After completion of the culture, the cells were collected, and suspended in a buffer (20 mM Tris-HCl (pH 8.0), 200 mM sodium chloride, 1 mM ethylenediaminetetraacetic acid (EDTA), 1 mM dithiothreitol (DTT)), a protein extracting reagent (10× BugBuster (registered trademark), produced by Novagen) in a volume of 1/10 of the volume of the buffer, and 2.5 μL/10 mL of the buffer of Benzonase (registered trademark) nuclease (produced by Novagen) were added, the mixture was left standing at 25° C. for 30 minutes, and the cells were disrupted and lysed to obtain a disrupted cell suspension containing the maltose-binding GyrA(wt), maltose-binding GyrB(wt), or maltose-binding mutant GyrA(S84L).
# Then, each disrupted cell suspension mentioned above was added to a column filled with an amylose resin covalently bound with maltose (produced by Novagen). A buffer (20 mM Tris-HCl (pH 8.0), 200 mM sodium chloride, 1 mM EDTA) containing 10 mM maltose was added to the column to elute the maltose-binding GyrA(wt), maltose-binding GyrB(wt), and maltose-binding mutant GyrA(S84L).
# To each eluate, 4 units/1 mL of the eluate of protease (Factor Xa, produced by Amersham) was added, and the mixture was left standing at 25° C. for 3 hours and 30 minutes to cleave the maltose-binding proteins, GyrA(wt), GyrB(wt), and mutant GyrA(S84L) from the maltose-binding GyrA(wt), maltose-binding GyrB(wt), and maltose-binding mutant GyrA(S84L).
# Then, GyrA(wt), GyrB(wt), and mutant GyrA(S84L) were concentrated by using an ultrafiltration unit (YM-50 Filter Unit, produced by Millipore).
# The concentrated GyrA(wt), GyrB(wt), and mutant GyrA(S84L) were each suspended in a buffer (35 mM Tris-HCl (pH 7.5), 24 mM potassium chloride, 6 mM magnesium chloride, 1.8 mM spermidine, 0.36 mg/mL bovine serum albumin, 5 mM DTT, 50 volume % glycerol) at a concentration of 1 μg/μL for GyrA(wt), 2 μg/μL for GyrB(wt), or 1 μg/μL for mutant GyrA(S84L).
# An assay was performed in the same manner as that of the cleavage of the plasmid DNA with GyrA(wt) and GyrB(wt) mentioned above, provided that 0.15 μL of an enzyme solution of mutant GyrA(S84L) and 0.2 μL of the enzyme solution of GyrB(wt) were added instead of […] of the enzyme solution of GyrA(wt) and 0.2 μL of the enzyme solution of GyrB(wt). In FIGS. 3 and 4, the symbols “S”, “L”, and “N” have the same meanings as those explained for FIGS. 1 and 2.
# IC50 value of levofloxacin or apigenin was also calculated from the visualized images shown in FIGS. 3 and 4 in the same manner as that used for the calculation using the results shown in FIGS. 1 and 2.
# The DNA cleavage assay was performed with M-246 in the same manner as that used in Example 4.
# [2] = tested on: S. aureus MS5935-1; test: MIC for S. aureus MS5935-1; format: cell-based; settings: Staphylococcus aureus, MS59351
# Experimental: The levofloxacin-susceptible Staphylococcus aureus strain MS5935-1 (strain in which the 80th serine residue from the amino terminus of the wild-type topoisomerase IV encoded by parC is mutated with phenylalanine residue, see, Hiramatsu K., Igarashi M., Morimoto Y, Baba T., Umekita M., Akamatsu Y., Int. J. Antimicrob. Agents, 2012 June; 39(6), 478-85) was cultured overnight at 37° C. with shaking in 4 mL of TBS (produced by Dickinson). After completion of the culture, the cells were suspended in fresh TBS, and the cell suspension was adjusted to have an absorbance of 0.3 measured at 578 nm. Then, the cell suspension was diluted 10,000 times with TBS. This diluted cell suspension was inoculated (0.1 mL each) into ten test tubes containing 4 mL each of TBS, and preculture was carried out overnight at 37° C.
SMILES,"IC50 ([1]; Example 4, Table 15, from ratio of cleaved DNA, read-out: IC50 (μg/mL) GyrA(S84L) + GyrB(wt))",MIC [2],inhibitory activity against the mutant DNA gyrase ([1]; FIG. 3 and 4),"IC50 ([1]; IC50 (μg/mL) GyrA(S84L) + GyrB(wt), Example 4, Table 15, from ratio of cleaved DNA)","IC50 ([1]; IC50 mutant GyrA(S84L) and GyrB(wt), value in μM)"
"C[C@H]1COc2c(N3CCN(C)CC3)c(F)cc3c(=O)c(C(=O)O)cn1c23 [Levofloxacin, levofloxacin, reference compound]",> 88.6 µM,0.5 µg/mL,,,
"O=c1cc(-c2ccc(O)cc2)oc2cc(O)cc(O)c12 [No. 7, 4′,5,7-Trihydroxyflavone]",,> 128 µg/mL,concentration-dependent inhibitory activity,~29.6 µM and 29.6 µM,~29.6 µM
